Tested on: cultured cells of Taxus baccata LINN
Experiment: Growth rate and taxane yield, 21-day shake culture of Taxus baccata cells with heavy metal compound, amine, antiethylene agent or Ethrel added
Type: cell-based
Description: (§1) One gram (fresh weight) of the callus was inoculated to an Erlenmeyer flask containing 20 ml of liquid Woody Plant Medium to which the above-mentioned component was added to give the same concentration and shake culture was carried out with a rotary shaker (amplification of 25 mm, 100 rpm) and the callus was subcultured in every 21 days to accelerate the growth rate thereof.
Then shake culture was carried out at 25° C. for 21 days.
(§2) After completing the culture, cultured cells of Taxus baccata LINN were harvested by filtration and lyophilized, then the dry weight was measured to obtain the growth rate thereof. Taxane-type diterpenes were extracted from the dried callus with methanol and the like, and they were determined by comparing with standard taxol, cephalomannine, and baccatin III using high performance liquid chromatography to measure the yields of the taxane-type diterpenes.
as §1
One gram (fresh weight) of the cultured cells thus obtained was inoculated to an Erlenmeyer flask containing 20 ml of liquid Woody Plant Medium to which the above-mentioned component had been added to give the same concentration, then spermidine was added to it as amine to give the final concentration of 10^−9M-1M. Then shake culture was carried out at 25° C. for 21 days.
as §2, with “cells” for “callus”, “diterpene.” for “diterpenes.”
as §1, with “component had been” for “component was”
One gram (fresh weight) of the cultured cells thus obtained was inoculated to an Erlenmeyer flask containing 20 ml of liquid Woody Plant Medium to which the above-mentioned component had been added to give the same concentration, and shake culture was carried out at 25° C. for 14 days.

[1] = 2×10^−6 M added 5 times at 4 days' intervals from day 0, total 10^−5 M
[2] = 10^−1 M added at start, 21 days
[3] = 10^−2 M added at start, 21 days
[4] = 10^−3 M added at start, 21 days
[5] = 10^−4 M added at start, 21 days
[6] = 10^−5 M added at start, 21 days
[7] = 10^−5 M added on 7th day, 14 more days
[8] = 10^−5 M added on 14th day, 7 more days
[9] = 10^−5 M added on 18th day, 3 more days
[10] = 10^−5 M at start + methyl jasmonate 10^−4 M on 14th day
[11] = 10^−5 M at start + methyl jasmonate 10^−4 M on 14th day, oxygen 10% in the gas phase
[12] = 10^−5 M at start, oxygen 10% in the gas phase
[13] = 10^−6 M added at start, 21 days
[14] = 10^−7 M added at start, 21 days
[15] = 10^−8 M added at start, 21 days
[16] = 10^−9 M added at start, 21 days
[17] = 1 M added on 14th day, 7 more days
[18] = 10^−1 M added on 14th day, 7 more days
[19] = 10^−2 M added on 14th day, 7 more days
[20] = 10^−3 M added on 14th day, 7 more days
[21] = 10^−4 M added on 14th day, 7 more days
[22] = 10^−6 M added on 14th day, 7 more days
[23] = 10^−7 M added on 14th day, 7 more days
[24] = 10^−8 M added on 14th day, 7 more days
[25] = 10^−9 M added on 14th day, 7 more days
[26] = Ethrel 10^−3 M added at the 14th day, no acetylsalicylic acid, oxygen 20%
[27] = Ethrel 10^−3 M added at the 14th day, no acetylsalicylic acid, oxygen 20%, cell + medium

NCCCCNCCCN [spermidine]
growth rate (1 M added at start, 21 days): 1.4 times
total yield of taxane (1 M added at start, 21 days): 0.21 mg/L
yield of baccatin III (1 M added at start, 21 days): 0.10 mg/L
yield of cephalomannine (1 M added at start, 21 days): 0.03 mg/L
yield of taxol (1 M added at start, 21 days): 0.08 mg/L
growth rate [1]: 2.9 times
total yield of taxane [1]: 27.74 mg/L
yield of baccatin III [1]: 6.30 mg/L
yield of cephalomannine [1]: 6.01 mg/L
yield of taxol [1]: 15.43 mg/L
growth rate [2]: 2.1 times
total yield of taxane [2]: 3.35 mg/L
yield of baccatin III [2]: 0.41 mg/L
yield of cephalomannine [2]: 1.00 mg/L
yield of taxol [2]: 1.94 mg/L
growth rate [3]: 2.0 times
total yield of taxane [3]: 7.13 mg/L
yield of baccatin III [3]: 0.82 mg/L
yield of cephalomannine [3]: 2.42 mg/L
yield of taxol [3]: 3.89 mg/L
growth rate [4]: 2.9 times
total yield of taxane [4]: 17.31 mg/L
yield of baccatin III [4]: 2.63 mg/L
yield of cephalomannine [4]: 4.59 mg/L
yield of taxol [4]: 10.09 mg/L
growth rate [5]: 3.1 times
total yield of taxane [5]: 22.23 mg/L
yield of baccatin III [5]: 2.78 mg/L
yield of cephalomannine [5]: 6.49 mg/L
yield of taxol [5]: 12.96 mg/L
growth rate [6]: 3.1 times
total yield of taxane [6]: 33.17 mg/L
yield of baccatin III [6]: 6.59 mg/L
yield of cephalomannine [6]: 7.30 mg/L
yield of taxol [6]: 19.28 mg/L
growth rate [7]: 2.9 times
total yield of taxane [7]: 27.45 mg/L
yield of baccatin III [7]: 6.08 mg/L
yield of cephalomannine [7]: 6.13 mg/L
yield of taxol [7]: 15.24 mg/L
growth rate [8]: 2.9 times
total yield of taxane [8]: 20.98 mg/L
yield of baccatin III [8]: 5.46 mg/L
yield of cephalomannine [8]: 5.32 mg/L
yield of taxol [8]: 10.20 mg/L
growth rate [9]: 3.0 times
total yield of taxane [9]: 11.48 mg/L
yield of baccatin III [9]: 2.95 mg/L
yield of cephalomannine [9]: 2.90 mg/L
yield of taxol [9]: 5.63 mg/L
growth rate [10]: 2.6 times
total yield of taxane [10]: 50.25 mg/L
yield of baccatin III [10]: 18.96 mg/L
yield of cephalomannine [10]: 9.74 mg/L
yield of taxol [10]: 21.55 mg/L
growth rate [11]: 2.6 times
total yield of taxane [11]: 57.89 mg/L
yield of baccatin III [11]: 19.65 mg/L
yield of cephalomannine [11]: 8.57 mg/L
yield of taxol [11]: 29.67 mg/L
growth rate [12]: 2.7 times
total yield of taxane [12]: 40.29 mg/L
yield of baccatin III [12]: 13.43 mg/L
yield of cephalomannine [12]: 7.81 mg/L
yield of taxol [12]: 19.05 mg/L
growth rate [13]: 3.2 times
total yield of taxane [13]: 23.16 mg/L
yield of baccatin III [13]: 3.61 mg/L
yield of cephalomannine [13]: 6.04 mg/L
yield of taxol [13]: 13.51 mg/L
growth rate [14]: 3.1 times
total yield of taxane [14]: 18.89 mg/L
yield of baccatin III [14]: 1.34 mg/L
yield of cephalomannine [14]: 5.79 mg/L
yield of taxol [14]: 11.76 mg/L
growth rate [15]: 3.1 times
total yield of taxane [15]: 4.39 mg/L
yield of baccatin III [15]: 0.66 mg/L
yield of cephalomannine [15]: 1.74 mg/L
yield of taxol [15]: 1.99 mg/L
growth rate [16]: 2.9 times
total yield of taxane [16]: 1.21 mg/L
yield of baccatin III [16]: 0.31 mg/L
yield of cephalomannine [16]: 0.58 mg/L
yield of taxol [16]: 0.32 mg/L

C=C [ethylene]
production of the taxane-type diterpene by the tissues and the cells: greatly inhibits

Cl.NOCC(=O)O [aminooxyacetic acid, aminoxyacetic acid hydrochloride]
growth rate [17]: 0.9 times
total yield of taxane [17]: 0 mg/L
yield of baccatin III [17]: 0 mg/L
yield of cephalomannine [17]: 0 mg/L
yield of taxol [17]: 0 mg/L
growth rate [18]: 1.2 times
total yield of taxane [18]: 1.03 mg/L
yield of baccatin III [18]: 0.33 mg/L
yield of cephalomannine [18]: 0.26 mg/L
yield of taxol [18]: 0.44 mg/L
growth rate [19]: 1.5 times
total yield of taxane [19]: 1.93 mg/L
yield of baccatin III [19]: 0.32 mg/L
yield of cephalomannine [19]: 0.71 mg/L
yield of taxol [19]: 0.90 mg/L
growth rate [20]: 1.5 times
total yield of taxane [20]: 3.43 mg/L
yield of baccatin III [20]: 1.11 mg/L
yield of cephalomannine [20]: 0.71 mg/L
yield of taxol [20]: 1.61 mg/L
growth rate [21]: 1.7 times
total yield of taxane [21]: 5.80 mg/L
yield of baccatin III [21]: 1.92 mg/L
yield of cephalomannine [21]: 1.22 mg/L
yield of taxol [21]: 2.66 mg/L
growth rate [8]: 1.7 times
total yield of taxane [8]: 3.81 mg/L
yield of baccatin III [8]: 1.30 mg/L
yield of cephalomannine [8]: 1.16 mg/L
yield of taxol [8]: 1.35 mg/L
growth rate [22]: 1.5 times
total yield of taxane [22]: 3.00 mg/L
yield of baccatin III [22]: 1.08 mg/L
yield of cephalomannine [22]: 0.73 mg/L
yield of taxol [22]: 1.19 mg/L
growth rate [23]: 1.7 times
total yield of taxane [23]: 2.33 mg/L
yield of baccatin III [23]: 0.66 mg/L
yield of cephalomannine [23]: 0.65 mg/L
yield of taxol [23]: 1.02 mg/L
growth rate [24]: 1.8 times
total yield of taxane [24]: 2.00 mg/L
yield of baccatin III [24]: 0.61 mg/L
yield of cephalomannine [24]: 0.62 mg/L
yield of taxol [24]: 0.77 mg/L
growth rate [25]: 2.3 times
total yield of taxane [25]: 1.38 mg/L
yield of baccatin III [25]: 0.21 mg/L
yield of cephalomannine [25]: 0.58 mg/L
yield of taxol [25]: 0.59 mg/L

NCCCNCCCCNCCCN [spermin]
growth rate (1 M added at start, 21 days): 1.0 times
total yield of taxane (1 M added at start, 21 days): 0.22 mg/L
yield of baccatin III (1 M added at start, 21 days): 0.10 mg/L
yield of cephalomannine (1 M added at start, 21 days): 0.04 mg/L
yield of taxol (1 M added at start, 21 days): 0.08 mg/L
growth rate [2]: 1.4 times
total yield of taxane [2]: 1.29 mg/L
yield of baccatin III [2]: 0.39 mg/L
yield of cephalomannine [2]: 0.32 mg/L
yield of taxol [2]: 0.58 mg/L
growth rate [3]: 2.1 times
total yield of taxane [3]: 3.30 mg/L
yield of baccatin III [3]: 0.70 mg/L
yield of cephalomannine [3]: 1.54 mg/L
yield of taxol [3]: 1.06 mg/L
growth rate [4]: 2.0 times
total yield of taxane [4]: 8.22 mg/L
yield of baccatin III [4]: 0.76 mg/L
yield of cephalomannine [4]: 2.68 mg/L
yield of taxol [4]: 4.78 mg/L
growth rate [5]: 2.3 times
total yield of taxane [5]: 11.96 mg/L
yield of baccatin III [5]: 1.64 mg/L
yield of cephalomannine [5]: 4.09 mg/L
yield of taxol [5]: 6.23 mg/L
growth rate [6]: 2.1 times
total yield of taxane [6]: 17.18 mg/L
yield of baccatin III [6]: 2.09 mg/L
yield of cephalomannine [6]: 5.63 mg/L
yield of taxol [6]: 9.46 mg/L
growth rate [13]: 2.4 times
total yield of taxane [13]: 6.89 mg/L
yield of baccatin III [13]: 0.89 mg/L
yield of cephalomannine [13]: 1.97 mg/L
yield of taxol [13]: 4.03 mg/L
growth rate [14]: 2.4 times
total yield of taxane [14]: 4.17 mg/L
yield of baccatin III [14]: 0.68 mg/L
yield of cephalomannine [14]: 1.32 mg/L
yield of taxol [14]: 2.17 mg/L
growth rate [15]: 2.3 times
total yield of taxane [15]: 3.42 mg/L
yield of baccatin III [15]: 0.62 mg/L
yield of cephalomannine [15]: 1.01 mg/L
yield of taxol [15]: 1.79 mg/L
growth rate [16]: 2.9 times
total yield of taxane [16]: 1.86 mg/L
yield of baccatin III [16]: 0.50 mg/L
yield of cephalomannine [16]: 0.64 mg/L
yield of taxol [16]: 0.72 mg/L

O=P(O)(O)CCCl [Reference Example 2]
growth rate [26]: 2.7 times
total yield of taxane [26]: 0.30 mg/L
yield of baccatin III [27]: 0.05 mg/L
yield of cephalomannine [27]: 0.16 mg/L
yield of taxol [27]: 0.09 mg/L

O=[N+]([O-])[O-].[Ag+] [silver nitrate]
growth rate [4]: 2.8 times
total yield of taxane [4]: 23.21 mg/L
yield of baccatin III [4]: 3.01 mg/L
yield of cephalomannine [4]: 7.54 mg/L
yield of taxol [4]: 12.66 mg/L
growth rate [20]: 2.8 times
total yield of taxane [20]: 20.58 mg/L
yield of baccatin III [20]: 2.18 mg/L
yield of cephalomannine [20]: 6.49 mg/L
yield of taxol [20]: 11.91 mg/L

Reference: patent publication US6403343B2, “Method of producing a taxane-type diterpene and a method of obtaining cultured cells which produce the taxane-type dilterpene at a high rate” (Mitsui Chemicals, Inc., priority 1993, dated 2002)
